Numbering of substitutions follows the chain as printed.
What was measured:
[1] = biological target: T1, E. coli KARI Ec_IlvC variant Ec_IlvC^Q110V-his6 (Q110V), SEQ ID NO: 23 (Escherichia coli, UniProt P05793, Q110V); experiment: KARI cuvette assay, purified Ec_IlvC^Q110V-his6; assay type: biochemical; settings: relative to Ec_IlvC^his6 with NADPH
T1 sequence (P05793 with tags, fused parts or gaps Q110V): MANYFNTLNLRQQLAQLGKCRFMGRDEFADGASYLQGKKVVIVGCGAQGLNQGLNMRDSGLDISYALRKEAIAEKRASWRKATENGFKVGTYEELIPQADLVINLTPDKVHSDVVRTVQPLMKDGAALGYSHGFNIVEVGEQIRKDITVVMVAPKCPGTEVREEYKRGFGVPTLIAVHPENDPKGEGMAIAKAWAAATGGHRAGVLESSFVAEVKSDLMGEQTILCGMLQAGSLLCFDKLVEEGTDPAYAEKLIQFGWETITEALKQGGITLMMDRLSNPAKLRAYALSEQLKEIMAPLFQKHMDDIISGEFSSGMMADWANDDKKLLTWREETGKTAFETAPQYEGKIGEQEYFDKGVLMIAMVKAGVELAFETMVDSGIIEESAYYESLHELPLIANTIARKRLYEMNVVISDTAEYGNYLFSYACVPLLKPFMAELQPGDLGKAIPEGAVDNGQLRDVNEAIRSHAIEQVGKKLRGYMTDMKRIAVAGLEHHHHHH
Experimental: (§1) KARI cuvette assay: KARI activity was assayed kinetically by monitoring the decrease in NAD(P)H concentration by measuring the absorbance at 340 nm. A reaction buffer was prepared containing 250 mM potassium phosphate pH 7, 1 mM DTT and 10 mM MgCl2. Cell pellets were resuspended (0.25 g wet weight/mL buffer) in 250 mM potassium phosphate (KPi) buffer containing 1 mM DTT and 10 mM MgCl2. The resuspended cells were lysed by sonication for 1 min with a 50% duty cycle and pelleted at 11000×g and 4° C. for 15 min. A reaction mixture consisting of 910 μl reaction buffer, 50 μl acetolactate, and 20 μl lysate was prepared in a cuvette. The reaction was initiated by addition of 20 μL of 10 mM NAD(P)H. A substrate free control was conducted using reaction buffer without the addition of acetolactate.
(§2) Purification of KARI: Cell pellets used for purification were resuspended in purification buffer A (20 mM Tris, 20 mM imidazol, 100 mM NaCl, 10 mM MgCl2, pH 7.4). KARI was purified by IMAC (Immobilized metal affinity chromatography) over a 1 ml Histrap High Performance (histrap HP) column pre-charged with Nickel (GE Healthcare) using an Akta FPLC system (GE Healthcare). […]

[2] = biological target: T2, E. coli KARI Ec_IlvC variant Ec_IlvC^S78D-his6 (S78D), SEQ ID NO: 17 (Escherichia coli, UniProt P05793, S78D); experiment: KARI cuvette assay, purified Ec_IlvC^S78D-his6; assay type: biochemical; settings: relative to Ec_IlvC^his6 with NADPH
T2 sequence (P05793 with tags, fused parts or gaps S78D): T1 sequence (P05793 with tags, fused parts or gaps Q110V) with S78D, V110Q
Experimental: as §1, §2

With `NC(=O)C1=CN([C@@H]2O[C@H](COP(=O)(O)OP(=O)(O)OC[C@H]3O[C@@H](n4cnc5c(N)ncnc54)[C@H](O)[C@@H]3O)[C@@H](O)[C@H]2O)C=CC1` [NADH, nicotinamide adenine dinucleotide] the “(kcat/KM with NADH)/(kcat/KM of Ec_IlvC^his6 with NADPH)” value [1] was 28% and the “(kcat/KM with NADH)/(kcat/KM of Ec_IlvC^his6 with NADPH)” value [2] was 32%.

Reference: patent publication US8097440B1, “Engineered microorganisms capable of producing target compounds under anaerobic conditions” (Gevo, Inc., priority 2008, dated 2012)
